Results on one compound are retold here after patent US20040106545A1, “Compounds and methods for modulating cell adhesion” (priority 1996, published 2004).

Test [1] has as its system Human saphenous vein vascular smooth muscle cells. Description: Vascular smooth muscle cell apoptosis at migrating wound edge, in situ end labeling. It is filed as cell-based. The settings on record: 1 mg/mL, 24 hours after wounding, n=4, p<0.05. As for the experimental part:
Human saphenous vein vascular smooth muscle cells were explanted from surplus segments of vein from patients undergoing coronary artery bypass surgery. Cells were maintained in Dulbecco's modified essential medium supplemented with […], 2 mmol/L L-glutamine and 10% fetal calf serum and were grown to confluence on glass coverslips. The cell layer was then subjected to scrape-wounding by drawing a fine cell scraper across the coverslip. Proliferation of the vascular smooth muscle cells was inhibited by addition of 2 mM hydroxyurea to the culture media. Vascular smooth muscle cells that are treated in this manner respond to the wounding of the confluent monolayer by migrating into the wound (Hammerle et al (1991) Vasa 20, 207-215). The percentage of apoptotic cells in the migrating edge (outermost 100 μm from the wound) was assessed by in situ end labeling at 24 hours after wounding (as in George et al (2001) Gene Therapy 8 668-676).

The test system is the same in test [2]. Description: Vascular smooth muscle cell migration after scrape-wounding. The class given is cell-based. As to conditions: 1 mg/mL, 24 hours after wounding. As for the experimental part:
An illustrative assay for evaluating the modulating of vascular smooth muscle cell migration may be performed as follows (as described in Example 23). Human saphenous vein vascular smooth muscle cells are explanted from surplus segments of vein from patients undergoing coronary artery bypass surgery. Cells are maintained in Dulbecco's modified essential medium supplemented with penicillin, streptomycin, L-glutamine and 10% fetal calf serum and are grown to confluence on glass coverslips in the presence or absence of collagen type I. The cell layer is then subjected to scrape-wounding by drawing a fine cell scraper across the coverslip. Proliferation of the vascular smooth muscle cells is inhibited by addition of 2 mM hydroxyurea to the culture media. […] The migratory capacity of the vascular smooth muscle cells is assessed by measuring the distance of migration into the wound area (outermost 100 μm from the wound) using image analysis software at 24 hours after wounding.
Human saphenous vein vascular smooth muscle cells were explanted from surplus segments of vein from patients undergoing coronary artery bypass surgery. […] The migratory capacity of the vascular smooth muscle cells was assessed by measuring the distance of migration into the wound area (outermost 100 μm from the wound) using image analysis software at 24 hours after wounding.

In test [3] the test system is 3T3 cells not expressing N-cadherin, N-CAM, or L1 (control cells). Description: Neurite outgrowth on control 3T3 monolayers (Example 2). The settings on record: 500 μg/ml. It is filed as cell-based, mouse. As for the experimental part:
Neurons were cultured on monolayers of 3T3 cells transfected with cDNA encoding N-cadherin essentially as described by Doherty and Walsh, Curr. Op. Neurobiol. 4:49-55, 1994; Williams et al., Neuron 13:583-594, 1994; Hall et al., Cell Adhesion and Commun. 3:441-450, 1996; Doherty and Walsh, Mol. Cell. Neurosci. 8:99-111, 1994; Safell et al., Neuron 18:231-242, 1997. Briefly, monolayers of control 3T3 fibroblasts and 3T3 fibroblasts that express N-cadherin were established by overnight culture of 80,000 cells in individual wells of an 8-chamber well tissue culture slide. 3000 cerebellar neurons isolated from post-natal day 3 mouse brains were cultured for 18 hours on the various monolayers in control media (SATO/2%FCS), or media supplemented with various concentrations of the cyclic peptide N—Ac-CHAVC-NH2 (SEQ ID NO:10) or a control peptide without the HAV sequence (N—Ac-CHGVC-NH2; SEQ ID NO:11). The cultures were then fixed and stained for GAP43, which specifically binds to the neurons and their neurites. The length of the longest neurite on each GAP43 positive neuron was then measured by computer assisted morphometry.

Test [4] deals with SKOV3 tumors. Description: Induction of apoptosis in SKOV3 tumors in nude mice (Apoptag). The class given is in vivo, mouse. How it is done: SKOV3 cells (ATCC) were grown to 70% confluence in Minimum Essential Medium (Life Technologies, Grand Island, N.Y.) supplemented with 10% Fetal Bovine Serum (Wisent, St. Bruno, Quebec) in a humidified atmosphere containing 5% CO2. Cells were then dissociated with 0.02% PBS/EDTA. Total cell count and viable cell number was determined by trypan blue stain and a hemacytometer.
Approximately 1×10^7 cells were resuspended in 400 μl saline and injected in 6-week-old CD-1 nude mice (female, Charles River) subcutaneously. After 20 days of continuous tumor growth, tumor size was about 4.0 mm. The tumor-bearing animals were then injected intraperitoneally every day with 20 mg/kg of the representative peptide modulating agent N—Ac-CHAVC-NH2 (SEQ ID NO:10) or saline, for 48 hours, 96 hours, 120 hours or 168 hours. […]
Tumor tissue was dissected and fixed in PBS with 4% paraformaldehyde for 48 hours. Specimens were then dehydrated in a series of alcohol incubations, and embedded in paraffin wax. Apoptosis was assessed using the Apoptag kit (Intergen, Purchase N.Y.) according to the manufacturer's protocol, with slight modifications. More specifically, sections were deparaffinized and re-hydrated. After a five minute wash with PBS, the slides were treated with 20 μg/ml Proteinase K in PBS for 15 minutes at room temperature. This was followed by two washes with distilled water (2 minutes each wash). […]

Turning to `CC(=O)N[C@H]1CSSC[C@@H](C(N)=O)NC(=O)[C@H](C(C)C)NC(=O)[C@H](C)NC(=O)[C@H](Cc2c[nH]cn2)NC1=O` [N—Ac—CHAVC—NH2, N-Ac-Cys-His-Ala-Val-Cys-NH2], in test [1], the “increase in apoptosis at wound edge” value is 3±1 fold. Besides, the “reduction of vascular smooth muscle cell migration” value in test [2] (collagen) was 56±5%; in test [2] (glass) it was 53±8%. Further, in test [3], the “inhibition of neurite outgrowth on control 3T3 cells” value is “did not inhibit neurite outgrowth”. The “apoptotic cells in tumor sections” value is “show an increase in apoptotic cells with longer treatment” in test [4] (20 mg/kg ip every day for 48, 96, 120 or 168 hours) and “extensive area of apoptotic cells within the center of the tumor” in test [4] (20 mg/kg once daily for four days, sacrificed 11 days after the last treatment).
